In ChEMBL document CHEMBL3507680, “University of Dundee, Gates Library screen for HepG2 cell viability”:

Test: Human HepG2 cell viability assay in 384 well format
Type: toxicity, cell-based
Parameters: dose 125 nL, time 70.5 hour; cytotoxicity at 70.5 h: concentration not given beside the values
Settings: HepG2 cells, read-out: Inhibition

SMILES | cytotoxicity at 70.5 h [%]
CC(O)CNc1nc(-c2cccnc2)nc2c1CCC2 (stereo not drawn) | 0.874
c1cncc(OC2CCN(CCn3cc4ccccc4n3)CC2)c1 | -25.2
CCOCC(=O)N1C[C@@H](NC(C)=O)[C@H](c2ccc(OC)cc2)C1 | -8.31
Cn1c(C(=O)N2CCC(C3OCCO3)CC2)c(Cl)c2ccccc21 | -9.46
Cc1ccc(C(=O)N2CC[C@@H]3CN(C4CCOCC4)CCO[C@@H]3C2)o1 | -7.78
Cc1nn(C)c(C)c1OCC(=O)NCC(O)Cc1ccccc1 (stereo not drawn) | 1.56
O=C(NC[C@H]1COCc2nc3cc(F)ccc3n21)c1cccnc1 | -2.79
CCc1ccc(CN2CC[C@@H]3NC(=O)CC[C@@H]32)o1 | 27
CN(C(=O)Cn1nc(-c2cccs2)ccc1=O)C1CCS(=O)(=O)C1 (stereo not drawn) | 11.2
CC(Cn1ccnc1)NC(=O)NCCc1ccc(Cl)s1 (stereo not drawn) | -4.32
CN(C)CC1CSCCCN1C(=O)c1ccc(=O)[nH]c1 (stereo not drawn) | 10.8
Cc1nc2c(C)cccc2cc1C(=O)N1CCC2(CC1)NCCNC2=O | -15.8
CC(=O)N1CCCCC1c1nc2c(c(NC3CCCC3)n1)CN(C)CC2 (stereo not drawn) | 17
O[C@H]1COCCN(Cc2cccc(C(F)(F)F)c2)C1 | -9.83
CSCC(=O)N1CCCC(CO)(CC2CC2)C1 (stereo not drawn) | -11
CNC(=O)Cc1noc(Cc2cccc(Cl)c2)n1 | -12.1
CCc1ccc2nc(NCC(O)CO)cc(C)c2c1 (stereo not drawn) | 1.81
c1csc(CN2CCC3(CC2)COCCN3CC2CC2)n1 | -10.1
O=C1NCCN1C1CCN(Cc2nc(-c3ccoc3)no2)CC1 | 7.71
Cc1cc(C2CCCN2Cc2nnc(-c3ccco3)o2)on1 (stereo not drawn) | -8.06

SMILES | cytotoxicity at 70.5 h [%]
COc1c(C(=O)N2CCC(CSc3ccccc3)C2)c(C)nn1C (stereo not drawn) | 1.84
CSCc1cccc(S(=O)(=O)NCCO)c1 | 0.997
Cn1cnnc1C1CCCN(C(=O)NCCCn2cccn2)C1 (stereo not drawn) | -2.61
CN(CCC(O)c1ccccc1)Cc1ccccc1C#N (stereo not drawn) | -5.67
Cc1nc(C)c2c(n1)CCN(Cc1ccco1)CC2 | 2.27
c1nc(N2CCCC2Cn2cncn2)c2ccsc2n1 (stereo not drawn) | 30.4
CO[C@@H]1CCN(c2ncc(F)cn2)[C@@H]2CN(CC3CC3)C[C@@H]21 | -11.2
CCN(CC)CCn1c(=O)oc2ccccc21 | -3.03
CC1(C)CNC(=O)c2nc(C3CCN(C(=O)C4CC4)CC3)[nH]c2C1 | -11
CC(c1ccccc1F)N1CCN(C(=O)Cc2ccncc2)CC1 (stereo not drawn) | -11.8
CN(Cc1ccc(-n2ccnc2)cc1)CC1CCCN1c1cccnn1 (stereo not drawn) | 23
CNC(=O)CN1CC[C@H]2CN(C(=O)c3ccoc3)C[C@H]2C1 | -4.77
O=C(NCCC(=O)N1CCCCCCC1)c1ccoc1 | -1.22
O=C(c1cccnc1N1CCOCC1)N1CCCC1Cn1cccn1 (stereo not drawn) | -8.41
CC1(c2ccccc2)CCC(=O)N(CCCN2CCOCC2)C1 (stereo not drawn) | -8.26
Cc1ccccc1C(=O)NC(C)CN1CCOC1=O (stereo not drawn) | -3.59
O=C(C1CCCN1c1ncnc2ccsc12)N1CCSCC1 (stereo not drawn) | -9.24
CCOCC(=O)NCCCn1ccnc1-c1ccccc1 | -7.22
CCN(CC)C(=O)c1ccc(CNc2cncc(-n3cccn3)n2)cc1 | -7.26
CCc1ccc(C(=O)N2CCN(CC(O)CC)CC2)o1 (stereo not drawn) | 46.5

SMILES | cytotoxicity at 70.5 h [%]
COc1ccc(CCN2CCCC2Cn2nc(C)nc2C)cc1 (stereo not drawn) | 17.7
Cc1ccc(C(=O)NC2CCCN(c3ncccn3)C2)cn1 (stereo not drawn) | 19.3
CCC[C@@H]1CN(C(=O)c2ccccc2-c2ncc[nH]2)C[C@H]1N(C)C | -2.55
Cc1ncncc1C(=O)N1CCOC(c2nc(C(C)C)n[nH]2)C1 (stereo not drawn) | -4.74
O=C(CNC(=O)Nc1cccc(-c2nccs2)c1)NCCO | -2.39
Cc1cc(-c2cnc(N3CCNC(=O)C3)nc2-c2ccncc2)on1 | 7.7
O=S(=O)(C1CC1)N1CCC2(COCc3cnc(N4CCOCC4)nc32)C1 (stereo not drawn) | 4.94
Cc1ccc(NC(=O)Cn2ccc3c(=O)n(C)ccc32)cc1F | -5.99
CNC(=O)c1cc2c(nc1NCC(C)C)CCN(CCOC)CC2 | 4.78
CN(CC(=O)NCC1CCCCC1)S(=O)(=O)c1cccnc1 | -3.39
Cc1noc(C)c1CCCNC(=O)C1CCN(C(=O)C2CCC2)CC1 | 5.79
CCC(OC)C(=O)N1CCC2(CC1)c1nc[nH]c1CCN2S(C)(=O)=O (stereo not drawn) | 32.6
CCn1cc(S(=O)(=O)N(CCc2ccccc2)Cc2ccn(C)n2)cn1 | -11.1
CCn1nc(C)c2nc(C)nc(N(C)Cc3ccco3)c21 | -21.8
Cc1nc(C)n(CC2CN(CCc3ccccc3Cl)CCO2)n1 (stereo not drawn) | 39.5
CNC(=O)CCN(C)c1nc(-c2ccncc2)nc2c1CCNC2 | -13.1
Cc1ccc(S(=O)(=O)Nc2cccnc2O)cc1C | -0.331
CCO[C@H]1C[C@@H](O)C12CCN(C1CCN(c3ccccc3C)CC1)CC2 | 3.61
